Assay results as given in ChEMBL document CHEMBL4680137, “Synthesis and biological evaluation of some novel 1,2,3-triazole hybrids of myrrhanone B isolated from Commiphora mukul gum resin: Identification of potent antiproliferative leads active against prostate cancer cells (PC-3)” (Eur J Med Chem, 2020).

Columns and labels:
A549 = experiment: Antiproliferative activity against human A549 cells assessed as reduction in cell viability after 48 hrs by MTT assay; type: functional, cell-based; conditions: A549, 48 h
DU-145 = experiment: Antiproliferative activity against human DU-145 cells assessed as reduction in cell viability after 48 hrs by MTT assay; type: functional, cell-based; conditions: DU-145, 48 h
MDA-MB-231 = experiment: Antiproliferative activity against human MDA-MB-231 cells assessed as reduction in cell viability after 48 hrs by MTT assay; type: functional, cell-based; conditions: MDA-MB-231, 48 h
L132 = experiment: Cytotoxicity against human L132 cells assessed as reduction in cell viability after 48 hrs by MTT assay; type: cell-based; conditions: L132, 48 h
[1] = Inhibition of LPS-induced TNF-alpha expression in human U-937 cells preincubated for 1 hr followed by LPS addition and measured after 24 hrs by ELISA; type: functional, cell-based
[2] = Inhibition of LPS-induced IL-1beta expression in human U-937 cells preincubated for 1 hr followed by LPS addition and measured after 24 hrs by ELISA; type: functional, cell-based
PC-3 = experiment: Antiproliferative activity against human PC3 cells assessed as reduction in cell viability after 48 hrs by MTT assay; type: functional, cell-based; conditions: PC-3, 48 h
[3] = Inhibition of Saccharomyces cerevisiae alpha-glucosidase using p-nitophenyl alpha […]D-glucoside incubated for 45 mins
U-87 MG = experiment: Antiproliferative activity against human U87 cells assessed as reduction in cell viability after 48 hrs by MTT assay; type: functional, cell-based, U-87MG ATCC
Saccharomyces cerevisiae [4] = experiment: Potency index, ratio of Myrrhanone-B IC50 to test compound IC50 for inhibition of Saccharomyces cerevisiae alpha-glucosidase
Saccharomyces cerevisiae [5] = experiment: Potency index, ratio of acarbose IC50 to test compound IC50 for inhibition of Saccharomyces cerevisiae alpha-glucosidase
SiHa = experiment: Antiproliferative activity against human SiHa cells assessed as reduction in cell viability after 48 hrs by MTT assay; type: functional, cell-based
HT-29 = experiment: Antiproliferative activity against human HT-29 cells assessed as reduction in cell viability after 48 hrs by MTT assay; type: functional, cell-based; conditions: HT-29, 48 h

SMILES	IC50 (A549)	IC50 (DU-145)	IC50 (MDA-MB-231)	IC50 (L132)	IC50 [1]	IC50 [2]	IC50 (PC-3)	IC50 [3]	IC50 (U-87 MG)	Ratio IC50 (Saccharomyces cerevisiae [4])	Ratio IC50 (Saccharomyces cerevisiae [5])	IC50 (SiHa)	IC50 (HT-29)
C/C(=C\CC/C(C)=C/CC[C@@H]1[C@@]2(C)CCC(=O)C(C)(C)[C@H]2CC[C@@]1(C)O)CC/C=C(\C)C(=O)OCc1cn(-c2ccccc2C)nn1	> 150 µM	> 150 µM	> 150 µM	> 150 µM									
C/C(=C\CC/C(C)=C/CC[C@@H]1[C@@]2(C)CCC(=O)C(C)(C)[C@H]2CC[C@@]1(C)O)CC/C=C(\C)C(=O)OCc1cn(C[C@@H]2O[C@H](n3ccc(=O)[nH]c3=O)[C@H]3OC(C)(C)O[C@H]32)nn1	15.3 µM	> 150 µM	> 150 µM	> 150 µM	8.1 µM	14.1 µM							
C/C(=C\CC/C(C)=C/CC[C@@H]1[C@@]2(C)CCC(=O)C(C)(C)[C@H]2CC[C@@]1(C)O)CC/C=C(\C)C(=O)OCc1cn(-c2ccc(F)c(Cl)c2)nn1	> 150 µM	> 150 µM		> 150 µM	7.83 µM	15.8 µM	22.9 µM	10.1 µM					
COc1ccccc1-n1cc(COC(=O)/C(C)=C/CC/C(C)=C/CC/C(C)=C/CC[C@@H]2[C@@]3(C)CCC(=O)C(C)(C)[C@H]3CC[C@@]2(C)O)nn1	> 150 µM	> 150 µM	> 150 µM	> 150 µM	11.7 µM	9.06 µM							
C[C@]12C=CC(=O)C=C1CC[C@@H]1[C@@H]2[C@@H](O)C[C@@]2(C)[C@H]1CC[C@]2(O)C(=O)CO [PREDNISOLONE]					0.64 µM	0.44 µM							
C/C(=C\CC/C(C)=C/CC[C@@H]1[C@@]2(C)CCC(=O)C(C)(C)[C@H]2CC[C@@]1(C)O)CC/C=C(\C)C(=O)OCc1cn(-c2ccc(C(F)(F)F)cc2)nn1	> 150 µM		> 150 µM	> 150 µM									
C/C(=C\CC/C(C)=C/CC[C@@H]1[C@@]2(C)CCC(=O)C(C)(C)[C@H]2CC[C@@]1(C)O)CC/C=C(\C)C(=O)OCc1cn(-c2ccccc2Cl)nn1	> 150 µM	> 150 µM	> 150 µM	> 150 µM	9.58 µM	8.95 µM		106 µM					
C/C(=C\CC/C(C)=C/CC[C@@H]1[C@@]2(C)CCC(=O)C(C)(C)[C@H]2CC[C@@]1(C)O)CC/C=C(\C)C(=O)OCc1cn(-c2ccc(F)cc2)nn1	> 150 µM	> 150 µM		> 150 µM					> 150 µM				
C/C(=C\CC/C(C)=C/CC[C@@H]1[C@@]2(C)CCC(=O)C(C)(C)[C@H]2CC[C@@]1(C)O)CC/C=C(\C)C(=O)OCc1cn(-c2ccc([N+](=O)[O-])cc2)nn1	> 150 µM	> 150 µM		> 150 µM						60.2	767		
C/C(=C\CC/C(C)=C/CC[C@@H]1[C@@]2(C)CCC(=O)C(C)(C)[C@H]2CC[C@@]1(C)O)CC/C=C(\C)C(=O)OCc1cn(-c2cccc([N+](=O)[O-])c2)nn1	> 150 µM	> 150 µM					24.8 µM	2.77 µM	134 µM				
C/C(=C\CC/C(C)=C/CC[C@@H]1[C@@]2(C)CCC(=O)C(C)(C)[C@H]2CC[C@@]1(C)O)CC/C=C(\C)C(=O)OCc1cn(-c2ccccc2Br)nn1	> 150 µM	> 150 µM	> 150 µM	> 150 µM									
C/C(=C\CC/C(C)=C/CC[C@@H]1[C@@]2(C)CCC(=O)C(C)(C)[C@H]2CC[C@@]1(C)O)CC/C=C(\C)C(=O)O	> 150 µM	> 150 µM	90.5 µM	> 150 µM	15.6 µM		40.7 µM	167 µM				96.7 µM	56.6 µM
C/C(=C\CC/C(C)=C/CC[C@@H]1[C@@]2(C)CCC(=O)C(C)(C)[C@H]2CC[C@@]1(C)O)CC/C=C(\C)C(=O)OCc1cn(-c2cccc(Br)c2)nn1	> 150 µM	> 150 µM		> 150 µM									
C/C(=C\CC/C(C)=C/CC[C@@H]1[C@@]2(C)CCC(=O)C(C)(C)[C@H]2CC[C@@]1(C)O)CC/C=C(\C)C(=O)OCc1cn(-c2cccc(C)c2)nn1	> 150 µM	137 µM		> 150 µM				13.4 µM				> 150 µM	
C/C(=C\CC/C(C)=C/CC[C@@H]1[C@@]2(C)CCC(=O)C(C)(C)[C@H]2CC[C@@]1(C)O)CC/C=C(\C)C(=O)OCc1cn(-c2ccc(C)cc2)nn1	> 150 µM	> 150 µM		> 150 µM									
